Legend:
B-RAF^V600E = target: T1, B-RAF^V600E (Homo sapiens, UniProt P15056, V600E); experiment: HotSpot kinase assay (RBC), B-RAF^V600E; type: biochemical
T1 construct: purchased Reaction Biology Corporation (RBC), Kinase HotSpot service

B-RAF^V600K = target: T2, B-RAF^V600K (Homo sapiens, UniProt P15056, V600K); experiment: HotSpot kinase assay (RBC), B-RAF^V600K; type: biochemical; details: 10 µM ATP
T2 construct: purchased Reaction Biology Corporation (RBC), Kinase HotSpot service
Procedure: To gain insight into the inhibitory mode of this new array of quinolines, 18a was tested at 1 µM concentration of ATP to compare it with its IC50 at 10 µM (Table 2).

786-0 = experiment: NCI-60 five-dose SRB assay; type: cell-based; details: Homo sapiens; 786-0, Renal cancer, five-dose test
How it was run: (§1)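 Screened at the National Cancer Institute against its panel of 60 human cancer cell lines, using the standard NCI protocol with sulforhodamine B staining as the read-out.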

A498 = experiment: NCI-60 five-dose SRB assay; type: cell-based; details: Homo sapiens; A498, Renal cancer, five-dose test
How it was run: as §1

CCRF-CEM = experiment: NCI-60 five-dose SRB assay; type: cell-based; details: Homo sapiens, Leukemia, five-dose test
How it was run: as §1

HCT-116 = experiment: NCI-60 five-dose SRB assay; type: cell-based; details: Homo sapiens; HCT-116, Colon cancer, five-dose test
How it was run: as §1

HCT-15 = experiment: NCI-60 five-dose SRB assay; type: cell-based; details: Homo sapiens; HCT-15, Colon cancer, five-dose test
How it was run: as §1

K-562 = experiment: NCI-60 five-dose SRB assay; type: cell-based; details: Homo sapiens, K562; K-562, Leukemia, five-dose test
How it was run: as §1

MCF7 = experiment: NCI-60 five-dose SRB assay; type: cell-based; details: Homo sapiens; MCF7, Breast cancer, five-dose test
How it was run: as §1

NCI-H226 = experiment: NCI-60 five-dose SRB assay; type: cell-based; details: Homo sapiens; NCI-H226, NSCL cancer, five-dose test
How it was run: as §1

NCI-H322M = experiment: NCI-60 five-dose SRB assay; type: cell-based; details: Homo sapiens, NSCL cancer, five-dose test
How it was run: as §1

NCI-H460 = experiment: NCI-60 five-dose SRB assay; type: cell-based; details: Homo sapiens; NCI-H460, NSCL cancer, five-dose test
How it was run: as §1

NCI-H522 = experiment: NCI-60 five-dose SRB assay; type: cell-based; details: Homo sapiens; NCI-H522, NSCL cancer, five-dose test
How it was run: as §1

SF-539 = experiment: NCI-60 five-dose SRB assay; type: cell-based; details: Homo sapiens; SF-539, CNS cancer, five-dose test
How it was run: as §1

SK-MEL-28 = experiment: NCI-60 five-dose SRB assay; type: cell-based; details: Homo sapiens; SK-MEL-28, Melanoma, five-dose test
How it was run: as §1

SK-MEL-2 = experiment: NCI-60 five-dose SRB assay; type: cell-based; details: Homo sapiens; SK-MEL-2, Melanoma, five-dose test
How it was run: as §1

SK-MEL-5 = experiment: NCI-60 five-dose SRB assay; type: cell-based; details: Homo sapiens; SK-MEL-5, Melanoma, five-dose test
How it was run: as §1

SR = experiment: NCI-60 five-dose SRB assay; type: cell-based; details: Homo sapiens, Leukemia, five-dose test
How it was run: as §1

[1] = test system: NCI-60 human cancer cell lines; experiment: NCI-60 single dose (10 µM) testing; type: cell-based; details: single dose 10 µM
Procedure: Encouraged by the promising results in the cell-free assay, the antiproliferative activity of all final compounds was evaluated by the National Cancer Institute (NCI) in a single dose of 10 µM over a library of 60 human cancer cell lines representing nine cancer types; leukemia, non-small cell lung (NSCL), colon, central nervous system (CNS), melanoma, ovarian, renal, prostate, and breast cancer.

[2] = test system: NCI-60 human tumor cell lines; experiment: NCI-60 five-dose testing, ranges over panel or subpanel; type: cell-based; details: for GI50: Homo sapiens
Procedure: The anticancer screening of target compounds over a full panel of 60 human cancer cell lines was carried out using Sulforhodamine B (SRB) assay at the National Cancer Institute (NCI), Bethesda, Maryland, USA, employing the standard protocol.

C-RAF = C-RAF (Homo sapiens, UniProt P04049); experiment: HotSpot kinase assay (RBC), C-RAF; details: for IC50: IC50 C-RAF
C-RAF, sequence (P04049 whole entry): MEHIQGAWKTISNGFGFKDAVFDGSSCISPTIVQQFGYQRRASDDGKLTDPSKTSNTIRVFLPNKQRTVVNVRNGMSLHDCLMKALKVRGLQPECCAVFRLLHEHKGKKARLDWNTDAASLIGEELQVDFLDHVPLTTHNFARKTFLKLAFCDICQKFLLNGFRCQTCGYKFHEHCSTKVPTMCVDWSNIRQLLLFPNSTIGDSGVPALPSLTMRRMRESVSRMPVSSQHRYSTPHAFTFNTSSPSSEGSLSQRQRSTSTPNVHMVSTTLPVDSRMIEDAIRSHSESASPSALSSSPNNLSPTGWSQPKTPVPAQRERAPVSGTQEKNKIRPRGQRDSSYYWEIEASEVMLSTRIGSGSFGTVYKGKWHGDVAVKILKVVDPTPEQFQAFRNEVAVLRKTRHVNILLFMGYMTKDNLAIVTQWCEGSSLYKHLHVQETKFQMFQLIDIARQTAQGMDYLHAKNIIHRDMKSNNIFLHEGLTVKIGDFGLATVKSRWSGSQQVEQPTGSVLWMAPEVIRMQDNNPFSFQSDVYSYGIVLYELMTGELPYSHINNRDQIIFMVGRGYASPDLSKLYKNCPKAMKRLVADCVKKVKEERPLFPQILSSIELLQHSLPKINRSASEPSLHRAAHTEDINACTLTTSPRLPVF
Excerpt: Reaction Biology Corporation (RBC) Kinase HotSpotSM service was utilized for cell-free biochemical kinase evaluation of the target compounds according to the reported assay protocol [46].

NCI/ADR-RES = experiment: NCI-60 five-dose SRB assay; type: cell-based; details: Homo sapiens, Ovarian cancer, five-dose test
How it was run: as §1

[3] = 10 µM ATP, 10-dose singlicate IC50 mode
[4] = MALME-3M, MDA-MB-435, SK-MEL-2, and UACC-62
[5] = melanoma LOX IMVI, SK-MEL-28, and SK-MEL-5
[6] = NSCL cell lines, range over lines
[7] = colon cancer cell lines, range over lines
[8] = melanoma cell lines, range over lines

T1 sequence (P15056 whole entry V600E): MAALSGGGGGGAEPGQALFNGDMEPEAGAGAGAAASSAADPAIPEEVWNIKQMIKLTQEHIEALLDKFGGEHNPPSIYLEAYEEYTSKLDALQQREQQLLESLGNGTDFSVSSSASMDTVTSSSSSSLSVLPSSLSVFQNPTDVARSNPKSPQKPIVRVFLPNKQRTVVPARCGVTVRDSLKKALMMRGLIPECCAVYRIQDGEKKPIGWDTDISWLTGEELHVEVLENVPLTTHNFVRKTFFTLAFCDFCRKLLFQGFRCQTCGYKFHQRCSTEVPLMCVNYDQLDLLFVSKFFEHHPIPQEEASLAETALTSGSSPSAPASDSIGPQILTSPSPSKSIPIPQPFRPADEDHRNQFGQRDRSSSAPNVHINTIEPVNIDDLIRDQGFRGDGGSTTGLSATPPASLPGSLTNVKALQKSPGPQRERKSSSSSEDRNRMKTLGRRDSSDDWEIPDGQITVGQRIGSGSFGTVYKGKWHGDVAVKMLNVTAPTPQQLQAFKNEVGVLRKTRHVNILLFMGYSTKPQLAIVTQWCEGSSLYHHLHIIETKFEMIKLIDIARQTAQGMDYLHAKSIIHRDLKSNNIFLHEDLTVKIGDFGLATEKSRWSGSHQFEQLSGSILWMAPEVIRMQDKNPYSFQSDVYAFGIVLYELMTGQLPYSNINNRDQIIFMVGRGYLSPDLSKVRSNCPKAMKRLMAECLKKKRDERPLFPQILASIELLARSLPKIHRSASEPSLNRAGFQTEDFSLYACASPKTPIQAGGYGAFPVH
T2 sequence (P15056 whole entry V600K): as the sequence (P15056 whole entry V600E) above, with E600K counted along it

Compound | IC50 (B-RAF^V600E; [3]) [nM] | GI50 (786-0) [nM] | GI50 (A498) [nM] | GI50 (CCRF-CEM) [nM] | GI50 (HCT-116) [nM] | GI50 (HCT-15) [nM] | GI50 (K-562) [nM] | GI50 (MCF7) [nM] | GI50 (NCI-H226) [nM] | GI50 (NCI-H322M) [nM] | GI50 (NCI-H460) [nM] | GI50 (NCI-H522) [nM] | GI50 (SF-539) [nM] | GI50 (SK-MEL-28) [nM] | GI50 (SK-MEL-2) [nM] | GI50 (SK-MEL-5) [nM] | GI50 (SR) [nM] | IC50 (C-RAF; [3]) [nM] | GI50 (NCI/ADR-RES) [nM] | other results
CN1CCN(Cc2ccc(C(=O)Nc3cccc(Nc4ccc5cc(O)ccc5n4)c3)cc2C(F)(F)F)CC1 [Compound 18a, N-(3-((6-hydroxyquinolin-2-yl)amino)phenyl)-4-((4-methylpiperazin-1-yl)methyl)-3-(trifluoromethyl)benzamide] | 114 ± 4.95 | 3130 | 22500 | 3480 | 3930 | 2090 | 1880 | 2460 | 16000 | 11000 | 3840 | 4820 | 1980 | 1790 | 13500 | 2350 | 2680 | 67.6 ± 5.1 | – | IC50 (B-RAF^V600E; 1 µM ATP): 84.3 ± 9 nM; IC50 (B-RAF^V600K): < 5.08 nM; growth percent [1, 4]: less than -90; growth percent [1, 5]: −100; GI50 ([2]; LOX IMVI, MALME-3M, and SK-MEL-28): 1590 to 1790 nM; GI50 [2, 6]: 3390 to 17800 nM; GI50 [2, 7]: 2090 to 18500 nM; GI50 increase relative to 17a ([2]; other melanoma cell lines): 1.37–9.11 fold; IC50 (C-RAF; 1 µM ATP): 29.3 ± 9 nM
COc1cccc2nc(Nc3cccc(NC(=O)c4ccc(CN5CCCN(C)CC5)c(C(F)(F)F)c4)c3)ccc12 [Compound 14b, N-(3-((5-methoxyquinolin-2-yl)amino)phenyl)-4-((4-methyl-1,4-diazepan-1-yl)methyl)-3-(trifluoromethyl)benzamide] | 355 ± 10.8 | 1720 | 13500 | 1620 | 1670 | 1620 | 1230 | 1590 | 1940 | 2120 | 1760 | 1760 | 1550 | 1680 | 2150 | 1710 | – | 192 ± 0.6 | 1720 | –
COc1ccc2nc(Nc3cccc(NC(=O)c4ccc(CN5CCN(C)CC5)c(C(F)(F)F)c4)c3)ccc2c1 [Compound 16a, N-(3-((6-methoxyquinolin-2-yl)amino)phenyl)-4-((4-methylpiperazin-1-yl)methyl)-3-(trifluoromethyl)benzamide] | 193 ± 7.6 | 5000 | 7350 | 2150 | 2410 | 1180 | 882 | 1370 | 4600 | 6060 | 1880 | 4880 | 2080 | 5330 | 5980 | 5100 | 1310 | 103 ± 2.65 | – | better kinase inhibition activity compared to 14a, B-RAF^V600E (B-RAF^V600E; ratio of IC50 versus 14a): 2.6 fold; better kinase inhibition activity compared to 14a, C-RAF (C-RAF; ratio of IC50 versus 14a): 1.5 fold
CN1CCCN(Cc2ccc(C(=O)Nc3cccc(Nc4ccc5cc(O)ccc5n4)c3)cc2C(F)(F)F)CC1 [Compound 18b, N-(3-((6-hydroxyquinolin-2-yl)amino)phenyl)-4-((4-methyl-1,4-diazepan-1-yl)methyl)-3-(trifluoromethyl)benzamide] | 227 ± 3.55 | 16000 | 17600 | 4940 | 6510 | 16400 | 1180 | 9830 | 13800 | 16200 | 18000 | 17000 | 11300 | 13900 | 17200 | 16100 | 1890 | 161 ± 30.1 | – | effect on cell growth ([1]; LOX IMVI): lethal effect; growth percent ([1]; melanoma SK-MEL-29, SK-MEL-5, and UACC-62): under −90%; GI50 [2, 6]: 3390 to 17800 nM; GI50 [2, 7]: 2090 to 18500 nM; GI50 [2, 8]: 10400 to 17200 nM
CN1CCN(Cc2ccc(C(=O)Nc3cccc(Nc4ccc5c(O)cccc5n4)c3)cc2C(F)(F)F)CC1 [Compound 17a, N-(3-((5-hydroxyquinolin-2-yl)amino)phenyl)-4-((4-methylpiperazin-1-yl)methyl)-3-(trifluoromethyl)benzamide] | 137 ± 13.2 | 2110 | 17500 | 2910 | 2700 | 1820 | 2420 | 1740 | 19200 | 3230 | 2190 | 1930 | 1670 | 1770 | 1920 | 1680 | 4390 | 95 ± 17.3 | 3450 | growth percent [1, 4]: less than -90; growth percent [1, 5]: −100; GI50 ([2]; MOLT-4, all leukemia cell lines, except MOLT-4): > 2000 nM
COc1cccc2nc(Nc3cccc(NC(=O)c4ccc(CN5CCN(C)CC5)c(C(F)(F)F)c4)c3)ccc12 [Compound 14a, 4-((4-methylpiperazin-1-yl)methyl)-N-(3-((5-methoxyquinolin-2-yl)amino)phenyl)-3-(trifluoromethyl)benzamide] | 498 ± 35.8 | 1760 | 2000 | 2100 | 1820 | 1780 | 2700 | 1570 | 4630 | 2290 | 1710 | 1790 | 1640 | 1710 | 3520 | 1620 | 1850 | 151 ± 2.35 | 2280 | –
COc1cccc2nc(Nc3ccc(F)c(NC(=O)c4ccc(CN5CCN(C)CC5)c(C(F)(F)F)c4)c3)ccc12 [Compound 15a, N-(2-fluoro-5-((5-methoxyquinolin-2-yl)amino)phenyl)-4-((4-methylpiperazin-1-yl)methyl)-3-(trifluoromethyl)benzamide] | 314 ± 22.9 | 12500 | 16900 | 9710 | 8750 | 13400 | 3590 | 12300 | 11100 | 15200 | 15900 | 16000 | 12400 | 15300 | 16100 | 15500 | 9830 | 161 ± 1.57 | – | GI50 ([2]; all cancer cell lines, range over lines): 3610 to 18800 nM; GI50 [2, 8]: 11700 to 16300 nM
CCN1CCN(Cc2ccc(C(=O)Nc3cccc(Nc4ccc5c(OC)cccc5n4)c3)cc2C(F)(F)F)CC1 [Compound 14c, 4-((4-ethylpiperazin-1-yl)methyl)-N-(3-((5-methoxyquinolin-2-yl)amino)phenyl)-3-(trifluoromethyl)benzamide] | 619 ± 2.7 | 1410 | 11800 | 1970 | 1450 | 1580 | 2110 | 1500 | 5530 | 3500 | 1470 | 1700 | 1370 | 1560 | 10700 | 1450 | 1870 | 182 ± 15.2 | 2280 | –
